Measured values: publication PMC4004266, “Understanding the Structural Requirements for Activators of the Kef Bacterial Potassium Efflux System” (Biochemistry, 2014)
Several values for one entry are separate records, joined by “and”; a condition that tells them apart may be missing. Equal entries are not always repeated. Entries after “also recorded” stand apart in the source; their conditions may differ. Blank lines part the entries; values can stand above or below the compound they belong to.

Key:
SdKefQCTD [1] = target: T1, SdKefQCTD (Shewanella denitrificans, UniProt Q12SB3); assay: Qualitative fluorescence competition assay with DNGSH (FB:FL ratio); format: binding, Shewanella denitrificans OS217; conditions: 1 mM competing ligand, 6 μM SdKefQCTD, 5 μM DNGSH, 525 nm
T1 sequence (Q12SB3 entry or part of it): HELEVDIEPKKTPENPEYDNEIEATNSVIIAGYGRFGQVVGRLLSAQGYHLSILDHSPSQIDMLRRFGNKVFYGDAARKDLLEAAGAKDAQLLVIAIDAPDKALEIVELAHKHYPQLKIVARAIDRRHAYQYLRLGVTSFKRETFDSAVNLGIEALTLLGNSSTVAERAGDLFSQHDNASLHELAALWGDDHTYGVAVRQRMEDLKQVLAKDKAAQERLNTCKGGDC

SdKefQCTD [2] = target: T1, SdKefQCTD; assay: Differential scanning fluorimetry (DSF); format: binding, Shewanella denitrificans OS217; conditions: 1 mM ligand, relative to protein alone
SdKefQCTD [3] = target: T1, SdKefQCTD; assay: Quantitative fluorescence competition experiment using DNGSH as probe (emission peak); format: binding, Shewanella denitrificans OS217; conditions: for no. of sites (n): competition with DNGSH, sites per subunit
SdKefQCTD [4] = target: T1, SdKefQCTD; assay: Isothermal titration calorimetry (ITC); format: binding, Shewanella denitrificans OS217; conditions: for no. of sites (n): sites per subunit
SdKefQCTD [5] = target: T1, SdKefQCTD; assay: Direct titration of DNGSH, fluorescence emission peak position (λmax); format: binding, Shewanella denitrificans OS217
Method: (§1) Measurements were performed in buffer C, using a 100 μL cuvette with 3 mm excitation and emission path lengths (Hellma GmbH & Co.) at 20 °C and an Edinburgh Instruments FLS920 spectrometer. Samples containing SdKefQCTD and DNGSH were excited at 340 nm, and emission spectra were measured from 395 to 670 nm. The steady state fluorescence anisotropy was measured with excitation at 340 nm and emission between 540 and 560 nm. Competition experiments were performed using samples pretreated with excess DNGSH, at a 2× protein concentration, and titrated with the ligand under study.
The data were fit using a standard saturation isotherm (see the Supporting Information for further information). For DNGSH fluorescence, λL was measured directly and found to be 572.5 nm. Inverse titrations with high SdKefQCTD concentrations allowed a good estimation of the emission maximum for the bound form (λML) as 530 nm with a quantum yield (Q) of 4. These three parameters were kept fixed during the fitting while Kd and n were optimized. […]
(§2) Analysis of ligand binding by fluorescence spectroscopy. […]
(§3) The conservation of mass for SdKefQCTD is given by n[M]0 = [M] + [ML] where the total concentration of SdKefQCTD subunits is [M]0, n is the number of active binding sites per M, [L]0 is the total concentration of ligand and the concentration of free ligand is [L]. […] If these expressions are substituted into equation 1, a quadratic equation for the protein-ligand complex [ML] is obtained that can be solved for [ML] and expressed as the fraction of bound ligand, fB (equation 2). […]
Two fluorescence parameters were used to obtain fB from experimental data. The peak position in the emission spectrum, λmax, was obtained by fitting a skewed Gaussian to the experimental spectra as described earlier (1). λmax was used as it was less easily disturbed than fluorescence intensity. Secondly, steady state fluorescence anisotropy, robs, was used. […]
sums depending on the fluorescence intensity of the bound and free ligand, IML and […]

SdKefQCTD [6] = target: T1, SdKefQCTD; assay: Steady state fluorescence anisotropy titration of DNGSH; format: binding, Shewanella denitrificans OS217
Method: as §1
The data were fit using a standard saturation isotherm (see the Supporting Information for further information). For DNGSH fluorescence, λL was measured directly and found to be 572.5 nm. […]
as §2, §3
Two fluorescence parameters were used to obtain fB from experimental data. […]

SdKefQCTD Q419K mutant = assay: DNGSH titration to Q419K mutant (background binding), emission peak; parameters: species or system Shewanella denitrificans OS217; conditions: titration of DNGSH to 7 μM SdKefQCTD Q419K
SdKef = assay: Whole cell potassium efflux assay; format: cell-based, Shewanella denitrificans OS217; conditions: for K+ efflux (activation of Kef): E. coli MJF335 transformed with wild-type SdKef, grown with GSH, electrophile 0.5 mM
Method: Potassium efflux experiments were performed as described previously.[7] Potassium efflux was measured, using an ion selective potassium electrode (ELIT 8031, Nico2000) and a lithium acetate reference electrode (ELIT 003n) with a four-channel ion analyzer (ELIT4), in 2 s intervals. Freshly transformed cells [either E. coli MJF335 cells lacking KefB, KefC, and GshA or MJF645 cells (lacking KefF and KefG in addition to KefB, KefC, and GshA)] were cultured in K115 minimal medium, containing 1 mM GSH, at 37 °C to an OD650 of ∼0.8–1.[11] The cells were filtered and washed with K10 buffer before being suspended in 5 mL of potassium-free K0 buffer. The cells were added to 30 mL of K0 medium in a stirred vessel held at 37 °C with equilibrated electrodes inserted. After 5 min, the electrophile was added to a final concentration of 0.5 mM [except for methylglyoxal (MG), which was added at a concentration of 0.8 mM[6]]. Rate constants were obtained by fitting exponentials to the change in potassium concentration after addition of the electrophile using Origin version 8.0 (Originlab).[7]

[7] = target: SdKefQCTD (soluble construct of the cytosolic regulatory domain of Kef from Shewanella denitrificans OS217, including the Q-linker) (Shewanella denitrificans OS217); assay: static multiangle light scattering; purified SdKefQCTD in solution; unpublished observations of the authors; 52.0 ± 2.5 kDa particles against 26.4 kDa per monomer
[8] = emission peak, competition with DNGSH (Kd 6 μM used for DNGSH)
[9] = ITC, 25 °C, one-site model, read-out: Kd

DNGSHbound:DNGSHligand ratio of fluorescence (FB:FL), Kef binding (SdKefQCTD [1]): greatest Kef affinity
change in protein melting temperature (ΔTm) (SdKefQCTD [2]): greatest ΔTm
Kd (SdKefQCTD [3]; [8]): 0.4 ± 0.2 µM
no. of sites (n) (SdKefQCTD [3]; emission peak): 0.7 ± 0.2
Kd (SdKefQCTD [4]; [9]): 6.7 ± 0.27 µM
no. of sites (n) (SdKefQCTD [4]; ITC): 0.41 ± 0.04
Compound: CC(C)(C)N1C(=O)CC(SCC(NC(=O)CCC(N)C(=O)O)C(=O)NCC(=O)O)C1=O (stereo not shown) [Compound 5, N-tert-butylsuccinimido-S-glutathione]

Compound: CN(C)c1cccc2c(S(=O)(=O)NCCCSC[C@H](NC(=O)CC[C@H](N)C(=O)O)C(=O)NCC(=O)O)cccc12 [DNGSH, S-{[5-(dimethylamino)naphthalen-1-yl]sulfonylaminopropyl} glutathione]
Kd (SdKefQCTD [5]): 6 ± 2 µM
Hill coefficient (nH) (SdKefQCTD [5]; DNGSH binding): 1
no. of sites (n) (SdKefQCTD [5]; emission peak, active binding sites per subunit): 0.6 ± 0.2
Kd (SdKefQCTD [6]): 8 ± 2 µM
no. of sites (n) (SdKefQCTD [6]; fluorescence anisotropy, sites per subunit): 1.1 ± 0.8
Kd (SdKefQCTD [4]): 19 ± 6 µM
no. of sites (n) (SdKefQCTD [4]; ITC): 0.7 ± 0.1 and 0.7 ± 0.2
binding to Q419K mutant (SdKefQCTD Q419K mutant): unable to bind

Compound: O=C1C=CC(=O)N1Cc1ccccc1 [Compound 16]
K+ efflux (activation of Kef) (SdKef): caused significant K^+ release

Kd (SdKefQCTD [3]; [8]): 4.4 ± 0.5 µM
no. of sites (n) (SdKefQCTD [3]; emission peak): 0.81 ± 0.05
Compound: CCCCCC(=O)CCSC[C@H](NC(=O)CC[C@H](N)C(=O)O)C(=O)NCC(=O)O [Compound 12]

Compound: N[C@@H](CCC(=O)N[C@@H](CSC1CCCC1=O)C(=O)NCC(=O)O)C(=O)O (stereo partly shown) [Compound 9]
K+ efflux (activation of Kef) (SdKef): no activation of K^+ efflux
DNGSHbound:DNGSHligand ratio of fluorescence (FB:FL), Kef binding (SdKefQCTD [1]): reduced binding affinity for Kef

stoichiometry N [7]: 2 subunits
Compound: SdKefQCTD (soluble construct of the cytosolic regulatory domain of Kef from Shewanella denitrificans OS217, including the Q-linker) (domain or fragment)

Compound: CCN1C(=O)C=CC1=O [NEM, N-ethylmaleimide]
rate constant for K+ efflux (SdKef; SdKef expressed in E. coli strain lacking KefFC and KefGB (MJF645), after addition of electrophile): high rate constant for K^+ efflux

Compound: C=CC(=O)CCCCC [Compound 22, 1-octen-3-one]
K+ efflux (activation of Kef) (SdKef): less effective at causing K^+ release; also recorded: causes little K^+ efflux

Compound: N[C@@H](CCC(=O)N[C@@H](CS)C(=O)NCC(=O)O)C(=O)O [GSH, glutathione, reference compound]
DNGSHbound:DNGSHligand ratio of fluorescence (FB:FL), Kef binding (SdKefQCTD [1]): low FB:FL ratios
change in protein melting temperature (ΔTm) (SdKefQCTD [2]): negligible change
Kd (SdKefQCTD [3]): 900 ± 200 µM
no. of sites (n) (SdKefQCTD [3]; emission peak): 0.83 ± 0.04
ITC signal on titration (SdKefQCTD [4]; could not be analyzed, data not shown): Only small signals

DNGSHbound:DNGSHligand ratio of fluorescence (FB:FL), Kef binding (SdKefQCTD [1]): reduced binding affinity for Kef
Compound: N[C@@H](CCC(=O)N[C@@H](CSC1CC(=O)CC1=O)C(=O)NCC(=O)O)C(=O)O (stereo partly shown) [Compound 8]

Compound: O=C1C=CC(=O)N1C1CCCCC1 [Compound 17, N-cyclohexylmaleimide]
K+ efflux (activation of Kef) (SdKef): causes rapid K^+ efflux

DNGSHbound:DNGSHligand ratio of fluorescence (FB:FL), Kef binding (SdKefQCTD [1]): high FB:FL ratios
Kd (SdKefQCTD [3]; [8]): 12 ± 3 µM
no. of sites (n) (SdKefQCTD [3]; emission peak): 0.7 ± 0.2
Kd (SdKefQCTD [4]; [9]): 23 ± 4 µM
no. of sites (n) (SdKefQCTD [4]; ITC): 0.38 ± 0.05
Compound: CCN1C(=O)CC(SCC(NC(=O)CCC(N)C(=O)O)C(=O)NCC(=O)O)C1=O (stereo not shown) [ESG, N-ethylsuccinimido-S-glutathione, reference compound]
